Data on two molecules can be found in patent US20250352606A1, “Pharmaceutical Composition for Promoting Neurogenesis and Method of Utilizing Gastrodia Elata Extract or Adenosine Analog for Promoting Neurogenesis” (AXR Pharma Inc., priority 2019, published 2025).

Experiment [1] deals with lipid peroxidation (malondialdehyde, MDA). Put plainly: Lipid peroxidation in serum and brain tissue of D-galactose-treated animals. The format is in vivo, mice. Conditions: serum, cortex and hippocampus; galactose-induced animals. As to the method:
(§1) A total of nine groups with 6 each animal experiments were conducted. The animals in groups 1-9 were: 1: blank control group, 2: D-galactose (0.2 g/kg), 3: D-galactose (0.2 g/kg)+vitamin E (100 mg/kg), 4: D-galactose (0.2 g/kg)+TM1-2 low dose (5 mg/kg), 5: D-galactose (0.2 g kg)+TM1-2 mid-dose group (20 mg/kg), 6: D-galactose (0.2 g/kg)+TM1-2 high dose group (50 mg/kg), 7: D-galactose (0.2 g/kg)+T1-11 low dose group (1 mg/Kg), 8: D-galactose (0.2 g/kg)+T1-11 high dose group (10 mg/kg), 9: T1-11 (10 mg/kg). D-galactose was treated by subcutaneous injection (0.2 g/kg body weight), and G. elata extract TM1-2, T1-11 and vitamin E were orally administrated (oral gavage). The test substances were treated once a day, continuing for 6 weeks. When administering, in addition to the blank control group, each group was continued to treat with 0.2 g/kg (body weight) D-galactose subcutaneously injected via back neck, and the blank control group was subcutaneously injected with physiological saline. The vitamin E group was used as a positive control group. After observing their behavior, the animals are intraperitoneally injected with 50 mg/g 5-bromo-2′-deoxyuridine (BrdU) continuously for one week. Then the animals were sacrificed to take their brain tissue and blood. […]

Experiment [2] has as its system p53, p16, p21 protein expression. Put plainly: Cellular senescence related molecules (p53, p16, p21) in SH-SY5Y cells. Type of experiment: cell-based.
Experiment [3] concerns BrdU and DCX-expressing cells in the hippocampus. In words: Neurogenesis markers BrdU and DCX in hippocampus of D-galactose-induced mice (immunostaining). Type of experiment: in vivo. As for the experimental part: as §1, with “saline.” for “saline. The vitamin E group was used as a positive control group. After observing their behavior, the animals are intraperitoneally injected with 50 mg/g 5-bromo-2′-deoxyuridine (BrdU) continuously for one week. Then the animals were sacrificed to take their brain tissue and blood.”
After observing the behavior, the animals of Example 6 are intraperitoneally injected with […] 5-bromo-2′-deoxyuridine (BrdU) continuously for a week. […] The sections were immunohistochemically stained by first reacting with the first antibody, doublecortin (DCX) (purchased from Abcam) and then with a fluorescence-labeled secondary antibody (purchased from Jackson Labs Technologies, Inc). […]

Experiment [4] has as its system glucose-6-phosphate dehydrogenase (G6PD). Put plainly: Glucose-6-phosphate dehydrogenase in serum and brain tissue of D-galactose-treated animals. The settings on record: serum, cortex and hippocampus; galactose-induced animals. The format is in vivo, mice. As for the experimental part: as §1
Experiment [5] deals with glutathione peroxidase (GSH-Px). Put plainly: Glutathione peroxidase in serum and brain tissue of D-galactose-treated animals. Type of experiment: in vivo, mice. The settings on record: serum, cortex and hippocampus; galactose-induced animals. As to the method:
as §1

In the next experiment the test system is catalase (CAT). Put plainly: Catalase activity in serum and brain tissue of D-galactose-treated animals. The settings on record: serum, cortex and hippocampus; galactose-induced animals. Type of experiment: in vivo, mice. As for the experimental part:
as §1

Experiment [6] has as its system superoxide dismutase (SOD). In words: Superoxide dismutase activity in serum and brain tissue of D-galactose-treated animals. The format is in vivo, mice. The settings on record: serum, cortex and hippocampus; galactose-induced animals. As to the method:
as §1

The subject of experiment [7] is D-galactose-induced aging mice. In words: Nesting test and burrowing test in D-galactose-induced aging mice. Type of experiment: in vivo. Conditions: D-galactose 0.2 g/kg s.c.; test substance oral gavage once a day for 6 weeks. As to the method: as §1, with “saline.” for “saline. The vitamin E group was used as a positive control group. After observing their behavior, the animals are intraperitoneally injected with 50 mg/g 5-bromo-2′-deoxyuridine (BrdU) continuously for one week. Then the animals were sacrificed to take their brain tissue and blood.”
In the Nesting Test (Deacon R (2012), Deacon RM (2006)), mice were given nesting materials, and they made nests in the corners of the cage and stayed in the nest. By using the nature of mouse nesting, nest cotton swabs were given, the scores of completing nesting were calculated, and the weight of the remaining unbroken cotton was weighed to assess the degree of mouse aging (FIGS. 5A and 5B). […]

Experiment [8] relates to D-galactose-induced aging mice. Put plainly: Morris water maze test in D-galactose-induced aging mice. The format is in vivo. Conditions: D-galactose 0.2 g/kg s.c.; test substance oral gavage once a day for 6 weeks. As for the experimental part: A total of nine groups with 6 each animal experiments were conducted. The animals in groups 1-9 were: 1: blank control group, 2: D-galactose (0.2 g/kg), 3: D-galactose (0.2 g/kg)+vitamin E (100 mg/kg), 4: D-galactose (0.2 g/kg)+TM1-2 low dose (5 mg/kg), 5: D-galactose (0.2 g kg)+TM1-2 mid-dose group (20 mg/kg), 6: D-galactose (0.2 g/kg)+TM1-2 high dose group (50 mg/kg), 7: D-galactose (0.2 g/kg)+T1-11 low dose group (1 mg/Kg), 8: D-galactose (0.2 g/kg)+T1-11 high dose group (10 mg/kg), 9: T1-11 (10 mg/kg). D-galactose was treated by subcutaneous injection (0.2 g/kg body weight), and G. elata extract TM1-2, T1-11 and vitamin E were orally administrated (oral gavage). The test substances were treated once a day, continuing for 6 weeks. When administering, in addition to the blank control group, each group was continued to treat with 0.2 g/kg (body weight) D-galactose subcutaneously injected via back neck, and the blank control group was subcutaneously injected with physiological saline. The vitamin E group was used as a positive control group.
Furthermore, the memory learning ability of mice was evaluated using the Morris water maze test (Vorhees C V, et al. (2006)) (FIG. 7A and FIG. 7B).

The next experiment has as its system SH-SY5Y cells. In words: SA-β-gal staining of senescence SH-SY5Y cells. Type of experiment: cell-based. The settings on record: senescence SH-SY5Y cells treated for 24 hours. As for the experimental part: SH-SY5Y cells (purchased from Taiwan and Bioresource Collection and Research Center (BCRC), 08C0066) was cultured in DMEM containing 10% fetal bovine serum, 100 U/ml penicillin and 100 µg/ml streptomycin in a carbon dioxide incubator. When SH-SY5Y cells were grown in a 100 mm culture dish to a fullness of 80%, subculture was carried out. […] Thus, the intracellular amount of SA-β-gal in the test cells were used as an indicator of cell senescence. These senescence cells were then used to perform the following aging-related cell experiments.
The senescence SH-SY5Y cells in embodiment 3 were treated with the G. elata crude extract TM1, the G. elata extract TM1-2 and N^6-(4-hydroxybenzyl) adenosine (T1-11) for 24 hours, then fixed with 4% formaldehyde, following by staining with SA-β-gal to evaluate the cell senescence level. […] Furthermore, the mechanism of cell senescence is currently known to be driven by two independent pathways, p53-p21 pathway and p16-Rb pathway. Both p21 and p16 are cyclin-dependent kinase inhibitors (CDKI), which prevent Rb from being phosphorylated so as to inhibit Rb. Consequently, the activity of E2F transcription factors is inhibited and the cell cycle is therefore blocked. p53, p63 and p73 can directly induce the activation of p21 protein, leading to arrest in cell cycle and cellular senescence.

For experiment [9], the system named is gamma amino butyric acid (GABA) metabolism. Conditions: An, et al (2003); cited from earlier work.

Molecules are shown by their SMILES.

Take `OC[C@H]1O[C@@H](n2cnc3c(NCc4ccc(O)cc4)ncnc32)[C@H](O)[C@@H]1O` [T1-11, N^6-(4-hydroxybenzyl) adenosine]: the “lipid peroxidation (malondialdehyde, MDA)” value in experiment [1] is recorded as “significantly repaired”. Besides, the “p53, p16, p21 protein expression” value in experiment [2] was “inhibition of p53, p16, p21 protein expression”. Besides, in experiment [3], the “expression of BrdU in the hippocampus” value is on record as “ameliorate the reduced expression” and the “expression of DCX in the hippocampus” value was “ameliorate the reduced expression”. The “level of glucose-6-phosphate dehydrogenase (G6PD) reduced by galactose” value in experiment [4] was “effectively reversed”. Moreover, the “level of glutathione peroxidation (GSH-Px) reduced by galactose” value in experiment [5] is “effectively reversed”. Also, the “activity of catalase (CAT)” value in the experiment with catalase (CAT) is listed as “significantly repaired the reduced activity”. The “activity of superoxide dismutase (SOD)” value in [6] is on record as “significantly repaired the reduced activity”. For the same molecule, the “cognitive behavioral deficit: construction of nests and burrowing” value in experiment [7] is reported as “effectively ameliorate the animal cognitive behavioral deficit”. Further, the “cognitive behavioral deficit incl. memory learning ability; higher dose better improvement” value in [8] is recorded as “ameliorate cognitive behavioral deficit”. Moreover, the “intracellular SA-β-gal (cell senescence level)” value with SH-SY5Y cells is reported as “significantly reduce SA-β-gal”.
As for `OCc1ccc(O[C@@H]2O[C@H](CO)[C@@H](O)[C@H](O)[C@H]2O)cc1` [gastrodin], the “metabolism of GABA in gerbil hippocampus” value in experiment [9] is listed as “alter the metabolism of gamma amino butyric acid (GABA)”.
